From patent US9357779B2 (priority 2010, dated 2016)

Assays:
[1] = for log P [a]: acidic range, pH 2.7, 0.1% aqueous formic acid/acetonitrile; for log P [a][d]: pH 2.7, major isomer; for log P [a][e]: pH 2.7, minor isomer
Method: (§1) Calibration was carried out using unbranched alkan-2-ones (having from 3 to 16 carbon atoms) with known log P values (the log P values were determined by the retention times using linear interpolation between two successive alkanones).

Phytophthora infestans = type: in vivo; details: tomato plants, protective, active compound concentration 500 ppm, evaluation 7 days after inoculation
[2] = pH 2.7, log P [a], acidic range, pH 2.7, 0.1% aqueous formic acid/acetonitrile

Method for physchem: as §1

Cc1cc(C(F)(F)F)nn1CC(=O)N1CCC(c2nc(C(Cl)=CC(=O)c3ccccc3)cs2)CC1 (mixture of isomers) [Compound I-26]
log P [a] [1]: 4^[a]

C#CCOc1ccccc1C(C=Cc1csc(C2CCN(C(=O)Cn3nc(C(F)F)cc3C(F)F)CC2)n1)=NO (mixture of isomers) [Compound I-64]
log P [a][d] [1]: 3.08^[a][d]; | log P [a][e] [1]: 3.30^[a][e]

COc1ccccc1C(=O)C=C(Cl)c1csc(C2CCN(C(=O)Cn3nc(C(F)(F)F)cc3C)CC2)n1 (mixture of isomers) [Compound I-65]
efficacy (Phytophthora infestans): 93% | log P [a][d] [1]: 3.96^[a][d]; | log P [a][e] [1]: 3.79^[a][e]

Cc1cc(C(F)(F)F)nn1CC(=O)N1CCC(c2nc(C#CC(=O)c3ccccc3)cs2)CC1 [Compound I-1]
log P [a] [1]: 3.58^[a]

COc1ccccc1C(=O)C#Cc1csc(C2CCN(C(=O)Cn3nc(C(F)(F)F)cc3C)CC2)n1 [Compound I-2]
log P [a] [1]: 3.35^[a];

Cc1cc(C(F)(F)F)nn1CC(=O)N1CCC(c2nc(C#CC(=O)c3cccc4ccccc34)cs2)CC1 [Compound I-3]
log P [a] [1]: 4.25^[a]

Cc1cc(C(F)(F)F)nn1CC(=O)N1CCC(c2nc(C#CC(=O)C3CCCCC3)cs2)CC1 [Compound I-4]
log P [a] [1]: 4.15^[a]

Cc1cc(C(F)(F)F)nn1CC(=O)N1CCC(c2nc(C#CC(=O)c3ccccc3Cl)cs2)CC1 [Compound I-5]
log P [a] [1]: 3.79^[a]

Cc1cc(C(F)(F)F)nn1CC(=O)N1CCC(c2nc(C#CC(=O)c3ccc(Cl)cc3Cl)cs2)CC1 [Compound I-6]
log P [a] [1]: 4.31^[a]

COc1ccc(C(=O)C#Cc2csc(C3CCN(C(=O)Cn4nc(C(F)(F)F)cc4C)CC3)n2)cc1 [Compound I-7]
log P [a] [1]: 3.54^[a]

Cc1cc(C(F)(F)F)nn1CC(=O)N1CCC(c2nc(C#CC(=O)C(C)(C)C)cs2)CC1 [Compound I-8]
log P [a] [1]: 3.68^[a]

Cc1cc(C(F)(F)F)nn1CC(=O)N1CCC(c2nc(C#CC(=O)c3cccs3)cs2)CC1 [Compound I-9]
log P [a] [1]: 3.29^[a]

Cc1cc(C(F)(F)F)nn1CC(=O)N1CCC(c2nc(C#CC(=O)c3ccco3)cs2)CC1 [Compound I-10]
log P [a] [1]: 2.92^[a]

CCOc1ccccc1C(=O)C#Cc1csc(C2CCN(C(=O)Cn3nc(C(F)(F)F)cc3C)CC2)n1 [Compound I-11, 1-(2-Ethoxyphenyl)-3-[2-(1-{[5-methyl-3-(trifluoromethyl)-1H-pyrazol-1-yl]acetyl}piperidin-4-yl)-1,3-thiazol-4-yl]prop-2-yn-1-one]
chromatographic logP (physchem; pH 2.7): 3.78 | chromatographic logP (physchem; [2]): 3.76

Cc1cc(C(F)(F)F)nn1CC(=O)N1CCC(c2nc(C(=O)/C=C/c3c(F)cccc3F)cs2)CC1 [Compound I-12, (2E)-3-(2,6-Difluorophenyl)-1-[2-(1-{[5-methyl-3-(trifluoromethyl)-1H-pyrazol-1-yl]acetyl}piperidin-4-yl)-1,3-thiazol-4-yl]prop-2-en-1-one]
chromatographic logP (physchem; [2]): 3.83

Cc1cc(C(F)(F)F)nn1CC(=O)N1CCC(c2nc(C(=O)Cc3ccccc3Br)cs2)CC1 [Compound I-13]
log P [a] [1]: 3.67^[a];

Cc1cc(C(F)(F)F)nn1CC(=O)N1CCC(c2nc(C(=O)CCc3ccccc3)cs2)CC1 [Compound I-14, 1-[2-(1-{[5-Methyl-3-(trifluoromethyl)-1H-pyrazol-1-yl]acetyl}piperidin-4-yl)-1,3-thiazol-4-yl]-3-phenylpropan-1-one]
chromatographic logP (physchem; [2]): 3.64

Cc1cc(C(F)(F)F)nn1CC(=O)N1CCC(c2nc(C(=O)CC(C)(C)c3ccccc3)cs2)CC1 [Compound I-15]
log P [a] [1]: 4.08^[a]

Cc1cc(C(F)(F)F)nn1CC(=O)N1CCC(c2nc(C(=O)Cc3ccccc3)cs2)CC1 [Compound I-16]
efficacy (Phytophthora infestans): 80% | log P [a] [1]: 3.36^[a]

Cc1cc(C(F)(F)F)nn1CC(=O)N1CCC(c2nc(C(=O)CC3CCCCC3)cs2)CC1 [Compound I-17]
log P [a] [1]: 4.13^[a];

Cc1cc(C(F)(F)F)nn1CC(=O)N1CCC(c2nc(C(=O)Cc3cccc4ccccc34)cs2)CC1 [Compound I-18]
log P [a] [1]: 3.87^[a]

COc1ccccc1C(=O)CCc1csc(C2CCN(C(=O)Cn3nc(C(F)(F)F)cc3C)CC2)n1 [Compound I-19]
log P [a] [1]: 3.34^[a]

CCOc1ccccc1C(=O)CCc1csc(C2CCN(C(=O)Cn3nc(C(F)(F)F)cc3C)CC2)n1 [Compound I-20, 1-(2-Ethoxyphenyl)-3-[2-(1-{[5-methyl-3-(trifluoromethyl)-1H-pyrazol-1-yl]acetyl}piperidin-4-yl)-1,3-thiazol-4-yl]propan-1-one]
chromatographic logP (physchem; [2]): 3.7 | chromatographic logP (physchem; pH 7.8): 3.68

Cc1cc(C(F)(F)F)nn1CC(=O)N1CCC(c2nc(CCC(=O)c3ccccc3Cl)cs2)CC1 [Compound I-21]
log P [a] [1]: 3.6^[a];

Cc1ccc(C)c(NC(=O)N2CCC(c3nc(/C=C/C(=O)c4c(F)cccc4F)cs3)CC2)c1 [Compound I-23]
efficacy (Phytophthora infestans): 70% | log P [a] [1]: 3.56^[a]

O=C(/C=C/c1csc(C2CCN(C(=O)Cn3nc(C(F)F)cc3C(F)F)CC2)n1)c1ccccc1 [Compound I-37]
efficacy (Phytophthora infestans): 95% | log P [a] [1]: 3.31^[a];

Cc1cccc(C(=O)/C=C/c2csc(C3CCN(C(=O)Cn4nc(C(F)F)cc4C(F)F)CC3)n2)c1 [Compound I-38]
efficacy (Phytophthora infestans): 95% | log P [a] [1]: 3.64^[a];

COc1cccc(OC)c1C(=O)/C=C/c1csc(C2CCN(C(=O)Cn3nc(C(F)F)cc3C(F)F)CC2)n1 [Compound I-39]
efficacy (Phytophthora infestans): 90% | log P [a] [1]: 3.04^[a]

O=C(/C=C/c1csc(C2CCN(C(=O)Cn3nc(C(F)F)cc3C(F)F)CC2)n1)c1ccc(F)cc1 [Compound I-40]
log P [a] [1]: 3.43^[a]

O=C(/C=C/c1csc(C2CCN(C(=O)Cn3nc(C(F)F)cc3C(F)F)CC2)n1)c1cccc(F)c1 [Compound I-41]
efficacy (Phytophthora infestans): 95% | log P [a] [1]: 3.48^[a]

CC(C)(C)C(=O)/C=C/c1csc(C2CCN(C(=O)Cn3nc(C(F)F)cc3C(F)F)CC2)n1 [Compound I-47]
efficacy (Phytophthora infestans): 94% | log P [a] [1]: 3.45^[a]

COc1ccc(C(=O)/C=C/c2csc(C3CCN(C(=O)Cn4nc(C(F)F)cc4C(F)F)CC3)n2)c(F)c1 [Compound I-48]
efficacy (Phytophthora infestans): 94% | log P [a] [1]: 3.45^[a]

O=C(CC1CCCCC1)c1csc(C2CCN(C(=S)Cn3nc(C(F)F)cc3C(F)F)CC2)n1 [Compound I-58, 1-[2-(1-{2-[3,5-Bis(difluoromethyl)-1H-pyrazol-1-yl]ethanethioyl}piperidin-4-yl)-1,3-thiazol-4-yl]-2-cyclohexylethanone]
chromatographic logP (physchem; [2]): 4.63 | chromatographic logP (physchem; pH 7.8): 4.56

Cc1cccc(CC(=O)c2csc(C3CCN(C(=O)Cn4nc(C(F)F)cc4C(F)F)CC3)n2)c1C [Compound I-59]
log P [a] [1]: 3.71^[a]

CO/N=C(/Cc1cccc(C)c1C)c1csc(C2CCN(C(=O)Cn3nc(C(F)F)cc3C(F)F)CC2)n1 [Compound I-61]
efficacy (Phytophthora infestans): 95% | log P [a] [1]: 4.33^[a]

O=C(/C=C/c1c(F)cccc1F)c1csc(C2CCN(C(=O)Cn3nc(C(F)F)cc3C(F)F)CC2)n1 [Compound I-62]
log P [a] [1]: 3.68^[a];

Cc1cccc(C)c1C(=O)/C=C/c1csc(C2CCN(C(=O)Cn3nc(C(F)F)cc3C(F)F)CC2)n1 [Compound I-63]
log P [a] [1]: 3.65^[a];

CON(C)C(=O)c1csc(C2CCN(C(=O)OC(C)(C)C)CC2)n1 [Compound V-1, tert-Butyl 4-{4-[methoxy(methyl)carbamoyl]-1,3-thiazol-2-yl}piperidine-1-carboxylate]
chromatographic logP (physchem; pH 2.7): 2.4

O=C(CC1CCCCC1)c1csc(C2CCNCC2)n1 [II-1, 4-[4-(Cyclohexylacetyl)-1,3-thiazol-2-yl]piperidinium chloride]
chromatographic logP (physchem; pH 2.7): 1.35

O=C(CCc1ccccc1)c1csc(C2CCNCC2)n1 [II-2, 4-[4-(3-Phenylpropanoyl)-1,3-thiazol-2-yl]piperidinium chloride]
chromatographic logP (physchem; pH 2.7): 1.19

CC(C)(C)OC(=O)N1CCC(c2nc(C(=O)CC3CCCCC3)cs2)CC1 [IV-1, tert-Butyl 4-[4-(cyclohexylacetyl)-1,3-thiazol-2-yl]piperidine-1-carboxylate]
chromatographic logP (physchem; pH 2.7): 5.43

CC(C)(C)OC(=O)N1CCC(c2nc(C(=O)CCc3ccccc3)cs2)CC1 [IV-2, tert-Butyl 4-[4-(3-phenylpropanoyl)-1,3-thiazol-2-yl]piperidine-1-carboxylate]
chromatographic logP (physchem; pH 2.7): 4.54

CC(C)(C)OC(=O)N1CCC(c2nc(/C=C/C(=O)c3c(F)cccc3F)cs2)CC1 [IV-3, tert-Butyl 4-[4-[(1E)-3-(2,6-difluorophenyl)-3-oxoprop-1-en-1-yl]-1,3-thiazol-2-yl]piperidine-1-carboxylate]
chromatographic logP (physchem; pH 2.7): 4.3

C#Cc1csc(C2CCN(C(=O)OC(C)(C)C)CC2)n1 [VI-1, tert-Butyl 4-(4-ethynyl-1,3-thiazol-2-yl)piperidine-1-carboxylate]
chromatographic logP (physchem; pH 2.7): 3.1

CC(C)(C)OC(=O)N1CCC(c2nc(C(O)CCc3ccccc3)cs2)CC1 (stereo not shown) [XVI-1, tert-Butyl 4-[4-(1-hydroxy-3-phenylpropyl)-1,3-thiazol-2-yl]piperidine-1-carboxylate]
chromatographic logP (physchem; pH 2.7): 3.79

C#Cc1csc(C2CCN(C(=O)Cn3nc(C(F)(F)F)cc3C)CC2)n1 [XX-1, 1-[4-(4-Ethynyl-1,3-thiazol-2-yl)piperidin-1-yl]-2-[5-methyl-3-(trifluoromethyl)-1H-pyrazol-1-yl]ethanone]
chromatographic logP (physchem; pH 2.7): 2.61
